Measurements taken from the supplement of paper PMC10307832.

Legend:
Experiment in all cases: relative viability (nuclei count vs DMSO), 5 days (fraction); higher = more cells survive
XMD13-2 + Palbociclib = compound: C1CC1C(=O)NC2=NNC3=C2C=CC(=C3)C4=CC(=CC=C4)C(=O)NC5CC5 [XMD13-2] + CC(=O)c1c(C)c2cnc(Nc3ccc(N4CCNCC4)cn3)nc2n(C2CCCC2)c1=O [Palbociclib] (partner 0.5 µM)
How it was run: (§1)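 Lung cancer cell lines in 1536-well plates got either a single drug or a fixed anchor-drug dose together with five library-drug doses (not always all listed) in √10 steps, by pin tool, on the day after seeding. Nuclei were counted after 5 days, and relative viability is the treated-to-vehicle ratio of nuclei counts. Values are medians of duplicate plates.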

XMD13-2 + Decitabine = compound: C1CC1C(=O)NC2=NNC3=C2C=CC(=C3)C4=CC(=CC=C4)C(=O)NC5CC5 [XMD13-2] + Nc1ncn([C@H]2C[C@H](O)[C@@H](CO)O2)c(=O)n1 [Decitabine] (partner 2 µM)
How it was run: as §1

Dasatinib + Phenformin = compound: Cc1nc(Nc2ncc(C(=O)Nc3c(C)cccc3Cl)s2)cc(N2CCN(CCO)CC2)n1 [Dasatinib] + N=C(N)NC(=N)NCCc1ccccc1 [Phenformin] (partner 250 µM)
How it was run: as §1

Dasatinib + Olaparib = compound: Cc1nc(Nc2ncc(C(=O)Nc3c(C)cccc3Cl)s2)cc(N2CCN(CCO)CC2)n1 [Dasatinib] + O=C(c1cc(Cc2n[nH]c(=O)c3ccccc23)ccc1F)N1CCN(C(=O)C2CC2)CC1 [Olaparib] (partner 8 µM)
How it was run: as §1

| Cell Line | relative viability (XMD13-2 + Palbociclib; first compound 0.05 µM) | relative viability (XMD13-2 + Palbociclib; first compound 0.1581 µM) | relative viability (XMD13-2 + Palbociclib; first compound 0.5 µM) | relative viability (XMD13-2 + Palbociclib; first compound 1.581 µM) | relative viability (XMD13-2 + Palbociclib; first compound 5 µM) | relative viability (XMD13-2 + Decitabine; first compound 0.05 µM) | relative viability (XMD13-2 + Decitabine; first compound 0.1581 µM) | relative viability (XMD13-2 + Decitabine; first compound 0.5 µM) | relative viability (XMD13-2 + Decitabine; first compound 1.581 µM) | relative viability (XMD13-2 + Decitabine; first compound 5 µM) | relative viability (Dasatinib + Phenformin; first compound 0.005 µM) | relative viability (Dasatinib + Phenformin; first compound 0.01581 µM) | relative viability (Dasatinib + Phenformin; first compound 0.05 µM) | relative viability (Dasatinib + Phenformin; first compound 0.1581 µM) | relative viability (Dasatinib + Phenformin; first compound 0.5 µM) | relative viability (Dasatinib + Olaparib; first compound 0.005 µM) | relative viability (Dasatinib + Olaparib; first compound 0.01581 µM) | relative viability (Dasatinib + Olaparib; first compound 0.05 µM) | relative viability (Dasatinib + Olaparib; first compound 0.1581 µM) | relative viability (Dasatinib + Olaparib; first compound 0.5 µM) |
| --- | --- | --- | --- | --- | --- | --- | --- | --- | --- | --- | --- | --- | --- | --- | --- | --- | --- | --- | --- | --- |
| LK-2 | 0.666 | 0.557 | 0.698 | 0.776 | 0.593 | 0.378 | 0.297 | 0.274 | 0.281 | 0.329 | 0.464 | 0.23 | 0.257 | 0.166 | 0.163 | 0.674 | 0.609 | 0.57 | 0.278 | 0.229 |
| LOU-NH91 | 0.541 | 0.554 | 0.561 | 0.475 | 0.507 | 0.815 | 0.844 | 0.802 | 0.837 | 0.882 | 0.734 | 0.678 | 0.566 | 0.489 | 0.288 | 0.925 | 0.807 | 0.726 | 0.615 | 0.372 |
| LU99A | 0.402 | 0.38 | 0.391 | 0.402 | 0.27 | 0.97 | 0.881 | 0.945 | 0.857 | 0.808 | 0.845 |  | 0.888 | 0.752 | 0.472 | 0.283 | 0.259 | 0.265 | 0.188 | 0.166 |
| LXF-289 | 0.627 | 0.64 | 0.535 | 0.634 | 0.612 | 0.38 | 0.377 | 0.402 | 0.399 | 0.379 | 0.543 | 0.512 | 0.414 | 0.34 | 0.0987 | 1.07 | 1.02 | 0.925 | 0.268 | 0.158 |
| NCI-H23 | 0.572 | 0.514 | 0.502 | 0.58 | 0.658 | 0.271 | 0.335 | 0.329 | 0.33 | 0.301 | 0.841 | 0.752 | 0.929 | 0.655 | 0.607 | 0.359 | 0.301 | 0.307 | 0.297 | 0.282 |
| NCI-H322M | 0.494 | 0.491 | 0.498 |  | 0.49 | 0.73 | 0.718 | 0.791 |  | 0.742 | 0.604 | 0.61 | 0.443 | 0.206 | 0.195 | 0.707 | 0.575 | 0.492 | 0.322 | 0.244 |
| NCI-H358 | 0.139 | 0.121 | 0.133 | 0.117 | 0.129 | 0.248 | 0.212 | 0.22 | 0.216 | 0.18 | 0.301 | 0.247 | 0.264 | 0.156 | 0.157 | 0.464 | 0.431 | 0.427 | 0.303 | 0.139 |
| NCI-H441 | 0.239 | 0.224 | 0.219 | 0.225 | 0.28 | 0.23 | 0.248 | 0.237 | 0.231 | 0.242 | 0.921 | 0.912 | 0.862 | 0.547 | 0.401 | 0.532 | 0.529 | 0.519 | 0.387 | 0.309 |
| NCI-H460 | 0.183 | 0.167 | 0.21 | 0.233 | 0.286 | 0.607 | 0.513 | 0.54 | 0.552 | 0.454 | 0.47 | 0.484 | 0.443 | 0.336 | 0.314 | 0.362 | 0.383 | 0.38 | 0.247 | 0.199 |
| NCI-H520 | 0.256 | 0.239 | 0.213 | 0.203 | 0.188 | 0.531 | 0.506 | 0.534 | 0.549 | 0.442 | 0.481 | 0.339 | 0.255 | 0.181 | 0.179 | 0.335 | 0.244 | 0.237 | 0.127 | 0.16 |
| NCI-H522 | 0.931 | 0.873 | 1.22 | 0.875 | 0.885 | 0.615 | 0.654 | 0.633 | 0.546 | 0.721 | 0.634 | 0.625 | 0.587 | 0.599 | 0.5 | 0.707 | 0.513 | 0.591 | 0.52 | 0.549 |
| NCI-H647 | 0.491 | 0.384 | 0.408 | 0.5 | 0.225 | 0.398 | 0.329 | 0.471 | 0.392 | 0.326 | 0.465 | 0.366 | 0.257 | 0.197 | 0.141 | 0.428 | 0.301 | 0.217 | 0.139 | 0.116 |
| NCI-H650 | 0.321 | 0.335 | 0.33 | 0.305 | 0.31 | 0.311 | 0.315 | 0.329 | 0.296 | 0.306 | 0.496 | 0.438 | 0.433 | 0.375 | 0.317 | 0.395 | 0.357 | 0.415 | 0.392 | 0.263 |
| NCI-H661 | 0.378 | 0.395 | 0.392 | 0.406 | 0.408 | 0.611 | 0.56 | 0.56 | 0.537 | 0.461 | 0.266 | 0.222 | 0.249 | 0.226 | 0.243 | 0.731 | 0.792 | 0.747 | 0.618 | 0.592 |
| NCI-H727 | 0.677 | 0.691 | 0.758 | 0.601 | 0.627 | 1.02 | 0.783 | 0.914 | 0.841 | 1 | 0.399 | 0.461 | 0.375 | 0.262 | 0.235 | 0.74 | 0.603 | 0.654 | 0.618 | 0.288 |
| NCI-H838 | 0.238 | 0.214 | 0.249 | 0.224 | 0.205 | 0.386 | 0.414 | 0.477 | 0.436 | 0.387 | 0.481 | 0.387 | 0.302 | 0.204 | 0.176 | 0.622 | 0.453 | 0.403 | 0.229 | 0.179 |
